Measured values published in article PMC3806465, “Discovery and Evaluation of Thiazinoquinones as Anti-Protozoal Agents” (Marine Drugs, 2013).
Like-named read-outs stand apart in the source and are kept apart here. Blank lines part the entries; values can stand above or below the molecule they belong to.

Columns and labels:
[1] = tested on: Plasmodium falciparum, K1 strain, IEF stage; assay: In vitro activity against P. falciparum K1; format: cell-based; settings: for SI Pf: Selectivity index for P. falciparum = IC50 L6/IC50 Pf
Method: (§1) The in vitro activities against the protozoan parasites T.b. rhodesiense, T. cruzi, L. donovani, and P. falciparum and cytotoxicity assessment against L6 cells were determined as reported elsewhere.

[2] = tested on: Trypanosoma brucei rhodesiense, STIB 900 strain, trypomastigotes stage; assay: In vitro activity against T. b. rhodesiense; format: cell-based
Method: as §1

[3] = tested on: Trypanosoma cruzi, Tulahuen C4 strain, amastigotes stage; assay: In vitro activity against T. cruzi; format: cell-based
Method: as §1

[4] = tested on: L6 rat skeletal myoblast cell line; assay: Cytotoxicity against L6 cells; format: cell-based
Method: as §1

[5] = tested on: Leishmania donovani, MHOM-ET-67/L82 strain, amastigote/axenic stage; assay: In vitro activity against L. donovani; format: cell-based
Method: as §1

[6] = Plasmodium falciparum, K1 dual drug resistant strain, IEF stage, average of two independent assays, read-out: IC50 P. falc. K1
[7] = Trypanosoma brucei, STIB 900, trypomastigotes, average of two independent assays, read-out: IC50 T. b. rhod.
[8] = Trypanosoma cruzi, TULAHUEN, Tulahuen C4, amastigotes, average of two independent assays, read-out: IC50 T. cruzi
[9] = Rattus norvegicus, Myoblast, cytotoxicity, L6 rat skeletal myoblasts, average of two independent assays, read-out: IC50 L6
[10] = Leishmania donovani, MHOM-ET-67/L82, axenic amastigotes, average of two independent assays, read-out: IC50 L. don.

SMILES: C#CCNC(=O)c1ccc2c(n1)C(=O)C1=C(C2=O)S(=O)(=O)C=CN1 [Compound 8h, N-(Prop-2-yn-1-yl)-5,10-dioxo-5,10-dihydro-4H-[1,4]thiazino[2,3-g]quinoline-7-carboxamide 1,1-Dioxide]
- IC50 [1, 6]: 1700 nM
- SI Pf [1]: 29
- IC50 [2, 7]: 10 µM
- IC50 [3, 8]: 150 µM
- IC50 [4, 9]: 50 µM
- melting point: 230 °C (dec.)
- IC50 [5, 10]: 230 µM

SMILES: CCOC(=O)c1cc2c(o1)C(=O)C1=C(C2=O)S(=O)(=O)CCN1 [Compound 15, Ethyl 5,9-Dioxo-3,4,5,9-tetrahydro-2H-benzofuro[5,6-b][1,4]thiazine-7-carboxylate 1,1-Dioxide]
- IC50 [1, 6]: 110 nM
- SI Pf [1]: 46
- IC50 [2, 7]: 1.1 µM
- IC50 [3, 8]: 4.7 µM
- IC50 [4, 9]: 5.1 µM
- melting point: 277 °C
- IC50 [5, 10]: 40 µM

SMILES: C#CCNC(=O)c1ccc2c(n1)C(=O)C1=C(C2=O)S(=O)(=O)CCN1 [Compound 7h, N-(Prop-2-yn-1-yl)-5,10-dioxo-3,4,5,10-tetrahydro-2H-[1,4]thiazino[2,3-g]quinoline-7-carboxamide 1,1-Dioxide]
- IC50 [1, 6]: 2400 nM
- SI Pf [1]: 17
- IC50 [2, 7]: > 150 µM
- IC50 [3, 8]: 53 µM
- IC50 [4, 9]: 41 µM
- melting point: 280 °C (dec.)
- IC50 [5, 10]: 170 µM

SMILES: CCCCNC(=O)c1ccc2c(n1)C(=O)C1=C(C2=O)S(=O)(=O)C=CN1 [Compound 8a, N-n-Butyl-5,10-dioxo-5,10-dihydro-4H-[1,4]thiazino[2,3-g]quinoline-7-carboxamide 1,1-Dioxide]
- IC50 [1, 6]: 700 nM
- SI Pf [1]: 33
- IC50 [2, 7]: 3.7 µM
- IC50 [3, 8]: 63 µM
- IC50 [4, 9]: 23 µM
- melting point: 200 °C (dec.)
- IC50 [5, 10]: > 280 µM

SMILES: COC(=O)CNC(=O)c1ccc2c(n1)C(=O)C1=C(C2=O)S(=O)(=O)CCN1 [Compound 7j, Methyl 2-(1,1-Dioxido-5,10-dioxo-3,4,5,10-tetrahydro-2H-[1,4]thiazino[2,3-g]quinoline-7-carboxamido)acetate]
- IC50 [1, 6]: 3400 nM
- SI Pf [1]: 31
- IC50 [2, 7]: 120 µM
- IC50 [3, 8]: 250 µM
- IC50 [4, 9]: 110 µM
- melting point: 200 °C (dec.)
- IC50 [5, 10]: > 260 µM

SMILES: COC(=O)c1ccc2c(n1)C(=O)C1=C(C2=O)S(=O)(=O)CCN1 [Compound 3]
- IC50 [1, 6]: 2500 nM
- SI Pf [1]: 56
- IC50 [2, 7]: 6.6 µM
- IC50 [3, 8]: 180 µM
- IC50 [4, 9]: 140 µM
- IC50 [5, 10]: 31 µM

SMILES: COCCNC(=O)c1ccc2c(n1)C(=O)C1=C(C2=O)S(=O)(=O)C=CN1 [Compound 8i, N-(2-Methoxyethyl)-5,10-dioxo-5,10-dihydro-4H-[1,4]thiazino[2,3-g] quinoline-7-carboxamide 1,1-Dioxide]
- IC50 [1, 6]: 1500 nM
- SI Pf [1]: 67
- IC50 [2, 7]: 13 µM
- IC50 [3, 8]: 140 µM
- IC50 [4, 9]: 99 µM
- melting point: 200 °C (dec.)
- IC50 [5, 10]: 150 µM

- melting point: 280 °C (dec.)
SMILES: COC(=O)c1cc2c(s1)C(=O)C1=C(NCCS1(=O)=O)C2=O [Compound 10b, Methyl 5,9-Dioxo-2,3,5,9-tetrahydro-1H-thieno[3′,2′:4,5]benzo [1,2-b][1,4]thiazine-7-carboxylate 4,4-Dioxide]

SMILES: CCCCCCCCNC(=O)c1ccc2c(n1)C(=O)C1=C(C2=O)S(=O)(=O)C=CN1 [Compound 8c, N-n-Octyl-5,10-dioxo-5,10-dihydro-4H-[1,4]thiazino[2,3-g]quinoline-7-carboxamide 1,1-Dioxide]
- IC50 [1, 6]: 980 nM
- SI Pf [1]: 6
- IC50 [2, 7]: 2.4 µM
- IC50 [3, 8]: 42 µM
- IC50 [4, 9]: 6.5 µM
- melting point: 280 °C (dec.)
- IC50 [5, 10]: 53 µM

SMILES: COc1cc([C@@H]2c3cc4c(cc3[C@H](O)[C@H]3COC(=O)[C@H]23)OCO4)cc(OC)c1OC [Podophyllotoxin, reference compound]
- IC50 ([4]; Rattus norvegicus, L6, read-out: IC50 L6 cells, rat skeletal myoblasts, positive control): 4 ng/mL
- IC50 ([4]; Rattus norvegicus, Myoblast, read-out: IC50 L6, cytotoxicity, L6 rat skeletal myoblasts, average of two independent assays): 0.01 µM
- IC50 ([4]; read-out: IC50 L6, cytotoxicity, L6 rat skeletal myoblasts, average of two independent assays): 0.019 µM

SMILES: O=C(NCc1ccccc1)c1ccc2c(n1)C(=O)C1=C(C2=O)S(=O)(=O)CCN1 [Compound 7d, N-Benzyl-5,10-dioxo-3,4,5,10-tetrahydro-2H-[1,4]thiazino[2,3-g]quinoline-7-carboxamide 1,1-Dioxide]
- IC50 [1, 6]: 1100 nM
- SI Pf [1]: 14
- IC50 [2, 7]: 1.9 µM
- IC50 [3, 8]: 43 µM
- IC50 [4, 9]: 15 µM
- melting point: 200 °C (dec.)
- IC50 [5, 10]: 21 µM

SMILES: Nc1nc(N)nc(Nc2ccc([As]3SCC(CO)S3)cc2)n1 (stereo not drawn) [Melarsoprol, reference compound]
- IC50 ([2]; Trypanosoma brucei, read-out: IC50 T. b. rhod., STIB 900, trypomastigotes, average of two independent assays): 0.005 µM
- IC50 ([2]; Trypanosoma brucei, read-out: IC50 T.b. rhodesiense, STIB900, trypomastigote forms, positive control): 4 ng/mL
- IC50 ([2]; read-out: IC50 T. b. rhod., STIB 900, trypomastigotes, average of two independent assays): 0.01 µM

SMILES: CC(C)=CCC/C(C)=C/CNC(=O)c1ccc2c(n1)C(=O)C1=C(C2=O)S(=O)(=O)CCN1 [Compound 7g, (E)-N-(3,7-Dimethylocta-2,6-dien-1-yl)-5,10-dioxo-3,4,5,10-tetrahydro-2H-[1,4]thiazino [2,3-g]quinoline-7-carboxamide 1,1-Dioxide]
- IC50 [1, 6]: 1600 nM
- SI Pf [1]: 15
- IC50 [2, 7]: 3.4 µM
- IC50 [3, 8]: 41 µM
- IC50 [4, 9]: 24 µM
- melting point: 200 °C (dec.)
- IC50 [5, 10]: 83 µM

SMILES: O=C(NCc1ccccc1)c1ccc2c(n1)C(=O)C1=C(C2=O)S(=O)(=O)C=CN1 [Compound 8d, N-Benzyl-5,10-dioxo-5,10-dihydro-4H-[1,4]thiazino[2,3-g]quinoline-7-carboxamide 1,1-Dioxide]
- IC50 [1, 6]: 4700 nM
- SI Pf [1]: 7
- IC50 [2, 7]: 4.2 µM
- IC50 [3, 8]: 160 µM
- IC50 [4, 9]: 34 µM
- melting point: 280 °C (dec.)
- IC50 [5, 10]: > 250 µM

SMILES: O=C(NCCc1ccccc1)c1ccc2c(n1)C(=O)C1=C(C2=O)S(=O)(=O)CCN1 [Compound 7e, N-Phenethyl-5,10-dioxo-3,4,5,10-tetrahydro-2H-[1,4]thiazino[2,3-g]quinoline-7-carboxamide 1,1-Dioxide]
- IC50 [1, 6]: 1500 nM
- SI Pf [1]: 72
- IC50 [2, 7]: 2.4 µM
- IC50 [3, 8]: 140 µM
- IC50 [4, 9]: 110 µM
- melting point: 240 °C (dec.)
- IC50 [5, 10]: 160 µM

- IC50 [5, 10]: 0.5 µM
- IC50 ([5]; Leishmania donovani, MHOM/ET/67/L82, axenic amastigote forms, positive control, read-out: IC50 L. donovani): 0.213 µg/mL
- IC50 ([5]; MHOM-ET-67/L82, axenic amastigotes, average of two independent assays, read-out: IC50 L. don.): 0.53 µM
SMILES: CCCCCCCCCCCCCCCCOP(=O)([O-])OCC[N+](C)(C)C [Miltefosine, reference compound]

- melting point: 200 °C (dec.)
SMILES: COCCNC(=O)c1ccc2c(n1)C(=O)C1=C(C2=O)S(=O)(=O)CCN1 [Compound 7i, N-(2-Methoxyethyl)-5,10-dioxo-3,4,5,10-tetrahydro-2H-[1,4]thiazino[2,3-g] quinoline-7-carboxamide 1,1-Dioxide]

SMILES: O=C(Cn1ccnc1[N+](=O)[O-])NCc1ccccc1 [Benznidazole, reference compound]
- IC50 ([3]; Trypanosoma cruzi, TULAHUEN, Myoblast, in Rattus norvegicus, read-out: IC50 T. cruzi, Tulahuen C2C4, amastigote forms in L6 rat myoblasts, positive control): 0.352 µg/mL
- IC50 [3, 8]: 1.8 µM
- IC50 ([3]; Tulahuen C4, amastigotes, average of two independent assays, read-out: IC50 T. cruzi): 1.4 µM

SMILES: O=C(O)c1ccc2c(n1)C(=O)C1=C(C2=O)S(=O)(=O)C=CN1 [Compound 4]
- IC50 [1, 6]: 600 nM
- SI Pf [1]: 300
- IC50 [2, 7]: 4 µM
- IC50 [3, 8]: > 290 µM
- IC50 [4, 9]: 180 µM
- IC50 [5, 10]: 190 µM

SMILES: O=C(O)c1ccc2c(n1)C(=O)C1=C(C2=O)S(=O)(=O)CCN1 [Compound 2, ascidiathiazone A]
- IC50 [1, 6]: 3300 nM
- SI Pf [1]: 50
- IC50 [2, 7]: 3.1 µM
- IC50 [3, 8]: > 290 µM
- IC50 [4, 9]: 167 µM
- IC50 ([4]; cytotoxicity, L6 rat skeletal myoblasts, average of two independent assays, read-out: IC50 L6): 170 µM
- IC50 [5, 10]: 270 µM

SMILES: O=C(O)CNC(=O)c1ccc2c(n1)C(=O)C1=C(C2=O)S(=O)(=O)C=CN1 [Compound 8k, 2-(1,1-Dioxido-5,10-dioxo-5,10-dihydro-4H-[1,4]thiazino[2,3-g]quinoline-7-carboxamido)acetic Acid]
- IC50 [1, 6]: 1200 nM
- SI Pf [1]: 93
- IC50 [2, 7]: 42 µM
- IC50 [3, 8]: 160 µM
- IC50 [4, 9]: 110 µM
- IC50 [5, 10]: > 280 µM

- melting point: 200 °C (dec.)
SMILES: O=C(O)c1cc2c(s1)C(=O)C1=C(NCCS1(=O)=O)C2=O [Compound 11b, 5,9-Dioxo-2,3,5,9-tetrahydro-1H-thieno[3′,2′:4,5]benzo[1,2-b][1,4] thiazine-7-carboxylic Acid 4,4-Dioxide]

SMILES: COC(=O)CNC(=O)c1ccc2c(n1)C(=O)C1=C(C2=O)S(=O)(=O)C=CN1 [Compound 8j, Methyl 2-(1,1-dioxido-5,10-dioxo-5,10-dihydro-4H-[1,4]thiazino[2,3-g]quinoline-7-carboxamido)acetate]
- IC50 [1, 6]: 1800 nM
- SI Pf [1]: 57
- IC50 [2, 7]: 35 µM
- IC50 [3, 8]: 160 µM
- IC50 [4, 9]: 100 µM
- IC50 [5, 10]: 220 µM

SMILES: CCN(CC)CCCC(C)Nc1ccnc2cc(Cl)ccc12 (stereo not drawn) [Chloroquine, reference compound]
- IC50 ([1]; Plasmodium falciparum, K1, read-out: IC50 P. falc. K1, K1 dual drug resistant strain, IEF stage, average of two independent assays): 200 nM
- IC50 ([1]; Plasmodium falciparum, K1, read-out: IC50 P. falciparum, K1 (chloroquine and pyrimethamine resistant), erythrocytic stages, positive control): 0.065 µg/mL
- IC50 ([1]; read-out: IC50 P. falc. K1, K1 dual drug resistant strain, IEF stage, average of two independent assays): 280 nM
